The record followed here is article PMC10132805 (Nature Communications, 2023).

“Also recorded” adds a separate entry of the source. Read-outs that look alike come from different tables or passages of the source. Residues, ends and D or L forms follow the SMILES beside them. No end group written: not given here. *: point of attachment. FITC = O=C1OC2(c3ccc(O)cc3Oc3cc(O)ccc32)c2ccc(NC(=S)*)cc21

Holding throughout (format): binding
Experiment [1] deals with 139 human bait protein domains. To be noted: for motif_found: motif benchmarking set; for specificity / RiboVD_mean_counts / RiboVD_count_proportions / peptide_counts_proportion: bait YAP1 WW-2 (P46937, 228-266); for RiboVD_mean_counts: mean sequencing counts over replicate selections; for RiboVD_count_proportions: proportion of counts.
A further experiment deals with CEP55 EABR (Homo sapiens, UniProt Q53EZ4). Description: biochemical. To be noted: for KD: pH 7.5.
Chain of CEP55 EABR (Q53EZ4 160-214 limits assumed): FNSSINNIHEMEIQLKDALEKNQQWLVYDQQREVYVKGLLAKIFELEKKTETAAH
In another experiment the target is NEDD4 WW4 (Homo sapiens, UniProt P46934). Nature of the experiment: biochemical.
Chain of NEDD4 WW4 (P46934 892-925 limits assumed): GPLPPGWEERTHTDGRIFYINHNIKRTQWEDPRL
Another experiment concerns the target NEDD4 WW2 (Homo sapiens, UniProt P46934). Nature of the experiment: biochemical.
For the next experiment, the target named is ALIX V (Homo sapiens, UniProt Q8WUM4). Description: biochemical.
Chain of ALIX V (Q8WUM4 360-702): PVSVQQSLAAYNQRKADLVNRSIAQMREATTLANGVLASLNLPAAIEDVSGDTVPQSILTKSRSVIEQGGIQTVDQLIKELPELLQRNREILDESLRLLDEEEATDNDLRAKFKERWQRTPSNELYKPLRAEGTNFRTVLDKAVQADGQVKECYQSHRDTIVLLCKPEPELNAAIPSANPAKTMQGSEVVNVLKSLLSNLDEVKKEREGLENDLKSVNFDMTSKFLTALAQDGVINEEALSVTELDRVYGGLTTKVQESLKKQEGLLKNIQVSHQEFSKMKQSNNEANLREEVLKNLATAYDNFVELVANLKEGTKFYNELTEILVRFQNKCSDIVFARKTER
Another experiment has as its target CLTC NTD (Homo sapiens, UniProt Q00610). Nature of the experiment: biochemical.
The target of the next experiment is PABPC1 PABC (Homo sapiens, UniProt P11940). Description: biochemical.
Chain of PABPC1 PABC (P11940 542-619 limits assumed): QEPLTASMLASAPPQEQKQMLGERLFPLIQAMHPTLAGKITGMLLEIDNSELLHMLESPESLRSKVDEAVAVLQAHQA
Another experiment has as its target AP2M1 MHD (Homo sapiens, UniProt Q96CW1). Nature of the experiment: biochemical.
[2] abbreviates: replicate 1 (first entry of cell).
Where [3] appears, read: replicate 2 (second entry of cell).
The mark [4] stands for this setting: replicate 3 (third entry of cell).

Chain of CLTC NTD (Q00610 2-479 limits assumed): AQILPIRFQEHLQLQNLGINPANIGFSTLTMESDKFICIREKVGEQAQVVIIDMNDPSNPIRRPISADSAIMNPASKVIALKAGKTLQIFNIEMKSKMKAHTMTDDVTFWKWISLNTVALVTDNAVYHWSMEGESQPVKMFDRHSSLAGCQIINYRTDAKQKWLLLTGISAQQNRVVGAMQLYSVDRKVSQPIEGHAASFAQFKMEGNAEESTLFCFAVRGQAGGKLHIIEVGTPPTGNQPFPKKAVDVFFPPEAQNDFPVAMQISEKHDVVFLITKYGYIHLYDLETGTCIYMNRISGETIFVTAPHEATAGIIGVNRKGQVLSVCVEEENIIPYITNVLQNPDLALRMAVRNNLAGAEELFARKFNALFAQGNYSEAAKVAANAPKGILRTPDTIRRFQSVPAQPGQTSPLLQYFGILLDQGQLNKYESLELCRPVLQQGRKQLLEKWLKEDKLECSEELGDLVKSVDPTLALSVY
Chain of NEDD4 WW2 (P46934 767-800 limits assumed): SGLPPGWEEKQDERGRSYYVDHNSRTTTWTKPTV
Chain of AP2M1 MHD (Q96CW1 170-434 limits assumed): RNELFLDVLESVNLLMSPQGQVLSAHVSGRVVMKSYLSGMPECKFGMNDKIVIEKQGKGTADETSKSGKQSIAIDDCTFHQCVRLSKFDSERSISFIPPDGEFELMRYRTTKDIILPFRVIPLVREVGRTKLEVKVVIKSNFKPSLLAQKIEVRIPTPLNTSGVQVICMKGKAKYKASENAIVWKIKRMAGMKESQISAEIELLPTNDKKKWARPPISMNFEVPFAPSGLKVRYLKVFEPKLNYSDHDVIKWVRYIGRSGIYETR

Turning to MSFGSF [P03317_1835_1840], the motif_found entry in experiment [1] (bait G3BP2_NTF2_1_Q9UN86_1_139) was “TRUE”.
As usually defined, the Kd is the equilibrium constant for the complex coming apart. A low value points to higher affinity. `CC(C)C[C@H](NC(=O)[C@H](C)NC(=O)[C@@H]1CCCN1C(=O)[C@@H]1CCCN1C(=O)CNC(=O)[C@H](CO)NC(=O)[C@H](C)NC(=O)[C@@H](N)[C@@H](C)O)C(=O)N[C@@H](CCC(=O)O)C(=O)N[C@@H](Cc1c[nH]c2ccccc12)C(=O)N[C@@H](CO)C(=O)N[C@@H](C)C(=O)N[C@H](C(=O)N[C@@H](CC(N)=O)C(=O)N[C@@H](CCC(=O)O)C(=O)N[C@@H](CCCCN)C(=O)O)[C@@H](C)O` [P 177-192 (RABV)]: on CEP55 EABR, the Kd was 22.3 µM.
In experiment [1], LPPPEYVPLHEISSKG displayed a specificity of 0.991, a RiboVD_mean_counts of 729 and a RiboVD_count_proportions of 0.02141. Moreover, in experiment [1] (setting [2]), the peptide_counts_proportion was 0.029. Also, the peptide_counts_proportion in experiment [1] (setting [3]) turned out to be 0.006. This compound also showed a peptide_counts_proportion in experiment [1] (setting [4]) of 0.029.
Regarding `CC[C@H](C)[C@H](NC(=O)[C@H](CC(=O)O)NC(=O)[C@H](C)NC(=O)[C@H](Cc1ccc(O)cc1)NC(=O)[C@H](C)NC(=O)[C@@H]1CCCN1C(=O)[C@@H]1CCCN1C(=O)[C@H](C)NC(=O)[C@@H](NC(=O)[C@@H]1CCCN1C(=O)[C@@H](NC(=O)[C@@H](NC(=O)[C@@H](NC(=O)[C@H](CCCNC(=N)N)NC(=O)[C@H](CCCNC(=N)N)NC(=O)[C@@H](N)CCSC)C(C)C)[C@@H](C)O)C(C)C)[C@@H](C)O)C(=O)NCC(=O)N[C@@H](Cc1ccc(O)cc1)C(=O)N1CCC[C@H]1C(=O)N[C@@H](CCSC)C(=O)O` [VP40 1-20 (SEBOV)], the figures for the Kd at NEDD4 WW4 and on NEDD4 WW2 were 68 µM and 22 µM, respectively.
Compound `CC(C)C[C@H](NC(=O)[C@H](CO)NC(=O)[C@@H](NC(=O)[C@H](CC(C)C)NC(=O)[C@@H]1CCCN1C(=O)[C@@H]1CCCN1C(=O)[C@H](Cc1ccc(O)cc1)NC(=O)[C@H](CC(C)C)NC(=O)[C@H](CO)NC(=S)Nc1ccc2c(c1)C(=O)OC21c2ccc(O)cc2Oc2cc(O)ccc21)[C@@H](C)O)C(=O)N[C@@H](CCCNC(=N)N)C(=O)O` [FITC - gag 493-502 (HIV1)] ({FITC}-SLYPPLTSLR-OH) showed a Kd on ALIX V of 2.6 µM.
For the compound `CC[C@H](C)[C@H](NC(=O)[C@H](CC(C)C)NC(=O)[C@H](CC(N)=O)NC(=O)[C@@H](NC(=O)[C@H](CC(=O)O)NC(=S)Nc1ccc2c(c1)C(=O)OC21c2ccc(O)cc2Oc2cc(O)ccc21)[C@@H](C)O)C(=O)N[C@@H](CCC(=O)O)C(=O)N[C@@H](Cc1ccccc1)C(=O)N[C@@H](CC(=O)O)C(=O)N[C@H](C(=O)N[C@@H](CC(N)=O)C(=O)O)[C@@H](C)O` [FITC - ARRB2 370-379 (Human)] ({FITC}-DTNLIEFDTN-OH), at CLTC NTD, the Kd was 26 µM.
Regarding NSMLNPNAVPFQPSPQY [N 2-17 (BeV)], at PABPC1 PABC, the “affinity compared to the peptide from the endogenous PABP inhibitor PAIP2_108-123” value is on record as “ten-fold weaker”.
In the case of PPPVLYPNLAELENYM [SDCBP2 39-54 (Human)], the affinity at ALIX V, expressed as Kd, was 2.1 µM.
In experiment [1], AELNPPPYNHSYESLH registered a specificity of 0.98, a RiboVD_mean_counts of 1834 and a RiboVD_count_proportions of 0.03738. The peptide_counts_proportion in experiment [1] (setting [2]) was 0.005. Also, the peptide_counts_proportion in experiment [1] (setting [3]) was found to be 0.079. The same compound registered a peptide_counts_proportion in experiment [1] (setting [4]) of 0.028.
For the compound `C[C@H](NC(=O)[C@H](CCC(N)=O)NC(=S)Nc1ccc2c(c1)C(=O)OC21c2ccc(O)cc2Oc2cc(O)ccc21)C(=O)N[C@@H](CCC(N)=O)C(=O)NCC(=O)N1CCC[C@H]1C(=O)N1CCC[C@H]1C(=O)N[C@@H](Cc1ccc(O)cc1)C(=O)N1CCC[C@H]1C(=O)N[C@H](C(=O)N[C@@H](Cc1ccc(O)cc1)C(=O)N1CCC[C@H]1C(=O)NCC(=O)N[C@@H](Cc1ccc(O)cc1)C(=O)O)[C@@H](C)O` [FITC - PDCD6IP 797-809 (Human)] ({FITC}-QAQGPPYPTYPGY-OH), the dissociation constant (Kd) at CEP55 EABR came to 0.31 µM.
On to “EPDQEPPPPYQEQVPVPVYHPTPSQ [RNF11 31-65 (Human)]”, for which the values for the Kd at NEDD4 WW4 and on NEDD4 WW2 were 35 µM and 15 µM, respectively.
With “VDEEKGLYPNLKLTEPTAPMIHNYM [Nsp4 118-142 (BAV)]”, at ALIX V, the Kd came out at 160 µM.
For “QAQGPPYPTYPGYPGY [PDCD6IP 797-812 (Human)]”, at CEP55 EABR, the Kd is about 0.3 µM and the KD result is “same order or tighter as the probe; also recorded: Due to the limitatons of our experimental setup we could not calculate the KD values for this peptide, however our experiments suggest very high affinity (mid to low nanomolar)”.
Compound “VPVDTNLIEFDTNYAT [ARRB2 367-382 (Human)]” yielded a Kd on CLTC NTD of 40 µM.
In experiment [1], VTVPTAPPAYADIGYP had a specificity of 0.918, a RiboVD_mean_counts of 10451.3 and a RiboVD_count_proportions of 0.1499. The same compound registered a peptide_counts_proportion in experiment [1] (setting [2]) of 0.298. The peptide_counts_proportion in experiment [1] (setting [3]) stood at 0.131. In experiment [1] (setting [4]), this compound displayed a peptide_counts_proportion of 0.021.
Take “GLRRTDLVDFVNGTVDY [RdRp 1840-1855 (SVV)]”: at CLTC NTD (pH 7.5), the KD result is “Low affinity binder”.
As for “PTDSNFYRALMDEEDM [EGFR 992-1007 (Human)]”, the equilibrium dissociation constant (Kd) on AP2M1 MHD came out at 2.4 µM.
The compound `CC(C)C[C@H](NC(=O)[C@H](CC(N)=O)NC(=O)[C@H](CO)NC(=O)[C@H](CCCCN)NC(=S)Nc1ccc2c(c1)C(=O)OC21c2ccc(O)cc2Oc2cc(O)ccc21)C(=O)N[C@@H](CC(N)=O)C(=O)N1CCC[C@H]1C(=O)N[C@@H](CC(N)=O)C(=O)N[C@@H](C)C(=O)N[C@@H](CCCCN)C(=O)N[C@@H](CCC(=O)O)C(=O)N[C@@H](Cc1ccccc1)C(=O)N[C@H](C(=O)N1CCC[C@H]1C(=O)NCC(=O)N[C@H](C(=O)N[C@@H](CCCCN)C(=O)O)C(C)C)C(C)C` [FITC - PAIP2 108-123 (Human), reference compound] ({FITC}-KSNLNPNAKEFVPGVK-OH) gave a Kd at PABPC1 PABC of 0.38 µM. This lies in the sub-micromolar range.
Regarding EPDQEPPPPYQEQVPV [RNF11 31-56 (Human)], the Kd at NEDD4 WW4 is 44 µM; at NEDD4 WW2, 13 µM.
In the case of PVPAPRKPTPAPRTAFR [P08411_1764_1780], the motif_found result in experiment [1] (bait CD2AP_SH3_1_Q9Y5K6_2_58) is “TRUE”.
Turning to `CC(C)[C@H](NC(=O)[C@H](C)NC(=O)[C@@H](N)[C@@H](C)O)C(=O)N[C@@H](C)C(=O)N1CCC[C@H]1C(=O)N1CCC[C@H]1C(=O)N[C@@H](C)C(=O)N1CCC[C@H]1C(=O)N[C@H](C(=O)N[C@@H](Cc1ccc(O)cc1)C(=O)N[C@@H](CCCNC(=N)N)C(=O)N[C@@H](CO)C(=O)N[C@@H](C)C(=O)N[C@@H](CCC(=O)O)C(=O)N[C@@H](C)C(=O)N[C@@H](Cc1c[nH]cn1)C(=O)O)C(C)C` [NP 602-617 (REBOV)], the Kd at CEP55 EABR came out at 2.18 µM.
As for TAPPAYADIGYPMSML, the specificity in experiment [1] amounted to 0.889. The same compound had a RiboVD_mean_counts in experiment [1] of 4550. Also, the RiboVD_count_proportions in experiment [1] is 0.1419. In addition, the peptide_counts_proportion in experiment [1] (setting [2]) amounted to 0.002; in experiment [1] (setting [3]), 0.008; in experiment [1] (setting [4]), 0.416.
As for `CC(C)C[C@H](NC(=O)CNC(=O)[C@H](C)NC(=O)[C@@H](N)CO)C(=O)N[C@@H](CC(N)=O)C(=O)N1CCC[C@H]1C(=O)N[C@@H](C)C(=O)N[C@@H](C)C(=O)N[C@H](C(=O)N1CCC[C@H]1C(=O)N[C@@H](Cc1ccccc1)C(=O)N[C@H](C(=O)N1CCC[C@H]1C(=O)N[C@@H](CCCCN)C(=O)N[C@@H](CC(N)=O)C(=O)N[C@@H](CCC(N)=O)C(=O)N[C@@H](Cc1ccc(O)cc1)C(=O)O)C(C)C)C(C)C` [P/V/C 183-198 (HeV)], at PABPC1 PABC, the “affinity compared to the peptide from the endogenous PABP inhibitor PAIP2_108-123” value is “ten-fold weaker”.
As for “LAVGPPSLNYIPPVLQ [TEX14 792-807 (Human)]”, on CEP55 EABR, the equilibrium dissociation constant (Kd) was about 0.3 µM and the KD result is given as “same order or tighter as the probe; also recorded: Due to the limitatons of our experimental setup we could not calculate the KD values for this peptide, however our experiments suggest very high affinity (mid to low nanomolar)”.
For P36328_1787_1804, the motif_found entry in experiment [1] (bait CD2AP_SH3_1_Q9Y5K6_2_58) is “TRUE”.
MSSLYPSLEDLKVDQA [SDCBP2 1-16 (Human)] registered a Kd at ALIX V of 0.29 µM.
As to `C[C@H](NC(=O)[C@H](CO)NC(=O)[C@H](Cc1ccc(O)cc1)NC(=O)[C@@H]1CCCN1C(=O)[C@@H]1CCCN1C(=O)[C@@H]1CCCN1C(=O)[C@H](CO)NC(=O)[C@H](CC(=O)O)NC(=O)[C@@H](NC(=S)Nc1ccc2c(c1)C(=O)OC21c2ccc(O)cc2Oc2cc(O)ccc21)[C@@H](C)O)C(=O)NCC(=O)O` [FITC - UL56 46-55 (HHV2)] ({FITC}-TDSPPPYSAG-OH), the figures for the Kd at NEDD4 WW4 and on NEDD4 WW2 were 82 µM and 16 µM, respectively.
